Drawing on patent US11447466B2, “Substituted indole compounds useful as inhibitors of TLR7/8/9” (BRISTOL-MYERS SQUIBB COMPANY, priority 2017, dated 2022), this text covers IC50 for 12 compounds.

Format in all cases: cell-based
The target of test [1] is T1, human TLR8 (Homo sapiens, UniProt Q9NR97).
T1 construct: host or cells: HEK-Blue cells
T1 sequence (Q9NR97 27-1041): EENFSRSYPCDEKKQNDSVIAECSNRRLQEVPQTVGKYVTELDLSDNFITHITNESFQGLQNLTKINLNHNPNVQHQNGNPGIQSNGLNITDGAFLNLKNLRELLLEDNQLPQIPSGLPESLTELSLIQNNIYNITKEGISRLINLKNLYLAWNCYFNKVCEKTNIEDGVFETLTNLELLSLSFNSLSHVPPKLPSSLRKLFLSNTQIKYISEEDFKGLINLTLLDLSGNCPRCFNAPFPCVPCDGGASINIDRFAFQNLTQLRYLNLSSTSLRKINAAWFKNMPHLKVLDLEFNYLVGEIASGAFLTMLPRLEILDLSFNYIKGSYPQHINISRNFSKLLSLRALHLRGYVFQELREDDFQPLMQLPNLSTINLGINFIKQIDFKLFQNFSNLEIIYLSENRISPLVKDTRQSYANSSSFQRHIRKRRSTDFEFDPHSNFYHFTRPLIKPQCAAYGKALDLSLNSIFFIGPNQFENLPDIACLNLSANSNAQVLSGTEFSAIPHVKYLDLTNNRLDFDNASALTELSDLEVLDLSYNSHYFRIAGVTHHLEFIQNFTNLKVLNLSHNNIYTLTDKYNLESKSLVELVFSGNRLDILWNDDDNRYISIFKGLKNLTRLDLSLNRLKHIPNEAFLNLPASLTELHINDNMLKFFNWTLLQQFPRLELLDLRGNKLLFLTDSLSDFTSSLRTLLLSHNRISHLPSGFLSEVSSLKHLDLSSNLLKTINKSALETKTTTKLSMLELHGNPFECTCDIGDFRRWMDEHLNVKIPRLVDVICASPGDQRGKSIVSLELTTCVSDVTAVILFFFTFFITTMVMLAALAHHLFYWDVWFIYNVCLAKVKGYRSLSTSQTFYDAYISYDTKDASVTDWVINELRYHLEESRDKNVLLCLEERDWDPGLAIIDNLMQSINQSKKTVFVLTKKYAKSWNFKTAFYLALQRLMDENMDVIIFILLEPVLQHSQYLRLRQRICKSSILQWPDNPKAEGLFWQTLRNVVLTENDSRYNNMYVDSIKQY
Put plainly: TLR8 inhibition reporter assay (HEK-Blue SEAP reporter, R848 stimulation). The conditions noted are these: HEK-Blue cells overexpressing human TLR8, SEAP reporter, R848 15.9 μM, 22 hour incubation. A digest of the protocol:
(§1)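 Dose–response from 0.05 nM to 50 μM was run in HEK-Blue human TLR7, TLR8 and TLR9 reporter cells. After 30 min at room temperature with compound, ligand was added (TLR7 gardiquimod 7.5 μM; TLR8 R848 15.9 μM; TLR9 ODN2006 5 nM) and SEAP measured next day, at 22 h.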
In general terms: A reporter such as luciferase makes a cellular process visible.

Test [2] deals with T2, human TLR7 (Homo sapiens, UniProt Q9NYK1).
T2 construct: host or cells: HEK-Blue cells
T2 sequence (Q9NYK1 27-1049): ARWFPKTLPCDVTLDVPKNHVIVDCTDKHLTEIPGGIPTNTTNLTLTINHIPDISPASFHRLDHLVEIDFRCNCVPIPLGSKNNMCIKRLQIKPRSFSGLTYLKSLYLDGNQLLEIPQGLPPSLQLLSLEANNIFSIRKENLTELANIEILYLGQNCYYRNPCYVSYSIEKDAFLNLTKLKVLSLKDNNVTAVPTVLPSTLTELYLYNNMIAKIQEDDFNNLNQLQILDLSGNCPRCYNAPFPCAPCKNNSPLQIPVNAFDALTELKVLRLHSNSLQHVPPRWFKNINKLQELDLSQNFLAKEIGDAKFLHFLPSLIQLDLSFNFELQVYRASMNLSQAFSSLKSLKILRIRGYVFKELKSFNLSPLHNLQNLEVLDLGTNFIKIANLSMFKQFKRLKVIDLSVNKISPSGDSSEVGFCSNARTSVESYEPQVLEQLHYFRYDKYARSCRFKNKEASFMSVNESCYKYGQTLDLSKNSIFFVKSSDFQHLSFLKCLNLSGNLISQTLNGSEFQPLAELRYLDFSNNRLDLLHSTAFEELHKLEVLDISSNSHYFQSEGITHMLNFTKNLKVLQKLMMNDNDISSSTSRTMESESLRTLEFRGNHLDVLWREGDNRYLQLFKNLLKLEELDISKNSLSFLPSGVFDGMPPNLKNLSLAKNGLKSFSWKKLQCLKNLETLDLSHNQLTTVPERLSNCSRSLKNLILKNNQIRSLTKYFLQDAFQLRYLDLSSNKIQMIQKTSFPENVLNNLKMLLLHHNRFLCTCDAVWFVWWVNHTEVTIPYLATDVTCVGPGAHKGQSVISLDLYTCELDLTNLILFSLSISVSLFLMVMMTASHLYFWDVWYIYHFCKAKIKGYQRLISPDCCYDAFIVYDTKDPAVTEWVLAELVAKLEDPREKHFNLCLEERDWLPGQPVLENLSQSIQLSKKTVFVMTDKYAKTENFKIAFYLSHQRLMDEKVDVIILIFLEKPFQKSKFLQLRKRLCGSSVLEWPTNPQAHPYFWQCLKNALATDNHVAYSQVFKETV
Briefly: TLR7 inhibition reporter assay (HEK-Blue SEAP reporter, gardiquimod stimulation). The following applies: HEK-Blue cells overexpressing human TLR7, SEAP reporter, gardiquimod 7.5 μM, 22 hour incubation. A digest of the protocol:
as §1

In test [3] the target is T3, human TLR9 (Homo sapiens, UniProt Q9NR96).
T3 construct: host or cells: HEK-Blue cells
T3 sequence (Q9NR96 26-1032): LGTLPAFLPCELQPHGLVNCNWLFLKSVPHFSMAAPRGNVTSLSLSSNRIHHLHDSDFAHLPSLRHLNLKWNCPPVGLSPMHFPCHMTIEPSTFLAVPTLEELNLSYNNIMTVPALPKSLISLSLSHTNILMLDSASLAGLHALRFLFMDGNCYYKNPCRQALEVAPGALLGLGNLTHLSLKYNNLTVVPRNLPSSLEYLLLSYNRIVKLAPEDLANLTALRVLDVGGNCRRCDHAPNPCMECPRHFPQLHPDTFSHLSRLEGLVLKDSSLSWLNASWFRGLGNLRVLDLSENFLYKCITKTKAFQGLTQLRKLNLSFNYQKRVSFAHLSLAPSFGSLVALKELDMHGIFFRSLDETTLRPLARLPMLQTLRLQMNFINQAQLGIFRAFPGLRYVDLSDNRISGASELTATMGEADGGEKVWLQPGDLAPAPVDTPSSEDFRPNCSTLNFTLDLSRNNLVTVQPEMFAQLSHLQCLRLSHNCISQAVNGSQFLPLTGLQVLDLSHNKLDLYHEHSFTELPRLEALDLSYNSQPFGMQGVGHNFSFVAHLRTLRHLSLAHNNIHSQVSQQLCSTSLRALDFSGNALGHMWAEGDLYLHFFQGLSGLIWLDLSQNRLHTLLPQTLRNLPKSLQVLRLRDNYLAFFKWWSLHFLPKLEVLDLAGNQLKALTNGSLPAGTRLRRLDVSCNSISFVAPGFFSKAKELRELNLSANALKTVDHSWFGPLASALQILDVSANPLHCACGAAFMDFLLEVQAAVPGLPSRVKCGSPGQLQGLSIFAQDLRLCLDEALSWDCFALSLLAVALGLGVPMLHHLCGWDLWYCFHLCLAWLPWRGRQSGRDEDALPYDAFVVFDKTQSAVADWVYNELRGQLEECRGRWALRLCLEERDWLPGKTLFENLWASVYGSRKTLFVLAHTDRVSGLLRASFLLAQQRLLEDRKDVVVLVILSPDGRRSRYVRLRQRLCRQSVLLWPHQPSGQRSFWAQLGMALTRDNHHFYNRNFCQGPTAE
Briefly: TLR9 inhibition reporter assay (HEK-Blue SEAP reporter, ODN2006 stimulation). The following applies: HEK-Blue cells overexpressing human TLR9, SEAP reporter, ODN2006 5 nM, 22 hour incubation. A digest of the protocol: as §1

Molecules are shown by their SMILES. pIC50: −log10 of the molar value.

What is called pIC50 is −log10 of the IC50, conventionally taken in molar units. Consider `Cc1nn(C)cc1CN1CCC(c2ccc3[nH]c(-c4cc(C)c(=O)n(C)c4)c(C(C)C)c3c2)CC1` [Example 232, 5-(5-(1-((1,3-dimethyl-1H-pyrazol-4-yl)methyl)piperidin-4-yl)-3-isopropyl-1H-indol-2-yl)-1,3-dimethylpyridin-2(1H)-one], for which the values for the pIC50 in test [1], in test [2] and in test [3] were 8.96, 8.54 and 5.22, respectively.

Regarding `Cc1cc(-c2[nH]c3ccc(C4CCN(CCC(C)(C)O)CC4)cc3c2C(C)C)c(C)n(C)c1=O` [Example 74, 5-(5-(1-(3-hydroxy-3-methylbutyl)piperidin-4-yl)-3-isopropyl-1H-indol-2-yl)-1,3,6-trimethylpyridin-2(1H)-one], the negative logarithm of the IC50 (pIC50) in test [1] is 8.31; in test [2] it was 7.68; in test [3] it was 5.36.

`CC(C)c1c(-c2ccc(=O)n(C)c2)[nH]c2ccc(C3CCN(C4COC4)CC3)cc12` [Example 175, 5-(3-isopropyl-5-(1-(oxetan-3-yl)piperidin-4-yl)-1H-indol-2-yl)-1-methylpyridin-2(1H)-one]: the pIC50 in test [1] is 7.06; in test [2], 6.56; in test [3], 4.81.

On to `Cc1c(-c2[nH]c3ccc(C4CCN(S(=O)(=O)CCN5CCCC5)CC4)cc3c2C(C)C)cn(C)c(=O)c1Cl` [Example 308, 3-chloro-5-(3-isopropyl-5-(1-((2-(pyrrolidin-1-yl)ethyl)sulfonyl)piperidin-4-yl)-1H-indol-2-yl)-1,4-dimethylpyridin-2(1H)-one], for which the negative-log IC50 (pIC50) is 7.66 in test [1], 8.70 in test [2] and 5.25 in test [3].

Turning to `Cc1cc(-c2[nH]c3ccc(C4CCN(CC5=NN=CC5)CC4)cc3c2C(C)C)cn(C)c1=O` [Example 200, 5-(5-(1-((4H-pyrazol-3-yl)methyl)piperidin-4-yl)-3-isopropyl-1H-indol-2-yl)-1,3-dimethylpyridin-2(1H)-one], the pIC50 in test [1] was 8.66; in test [2], 8.37; in test [3] it was 5.43.

As for `COc1cc(-c2[nH]c3ccc(C4CCNCC4)cc3c2C(C)C)c(C)n(C)c1=O` [Example 28, 5-(3-isopropyl-5-(piperidin-4-yl)-1H-indol-2-yl)-3-methoxy-1,6-dimethylpyridin-2(1H)-one], the results for the negative-log IC50 (pIC50) in test [1], in test [2] and in test [3] were 6.76, 6.68 and 5.92, respectively.

On to `Cc1cc(-c2[nH]c3ccc(C4CCN(CC(=O)N5CC[C@@H](O)C5)CC4)cc3c2C(C)C)cn(C)c1=O` [Example 120, (R)-5-(5-(1-(2-(3-hydroxypyrrolidin-1-yl)-2-oxoethyl)piperidin-4-yl)-3-isopropyl-1H-indol-2-yl)-1,3-dimethylpyridin-2(1H)-one], for which the pIC50 in test [1] is 7.94; in test [2] it was 8.13; in test [3], 6.07.

With `CCn1cc(-c2[nH]c3ccc(C4CCN(C5CCOCC5)CC4)cc3c2C(C)C)c(C)c(C)c1=O` [Example 208, 1-ethyl-5-(3-isopropyl-5-(1-(tetrahydro-2H-pyran-4-yl)piperidin-4-yl)-1H-indol-2-yl)-3,4-dimethylpyridin-2(1H)-one], the results for the negative logarithm of the IC50 (pIC50) in test [1], in test [2] and in test [3] were 8.15, 7.51 and 5.51, respectively.

For the compound `CC(C)c1c(-c2cc(-c3cccnc3)c(=O)n(C)c2)[nH]c2ccc(C3CCN(CCO)CC3)cc12` [Example 236, 5-(5-(1-(2-hydroxyethyl)piperidin-4-yl)-3-isopropyl-1H-indol-2-yl)-1-methyl-[3,3′-bipyridin]-2(1H)-one], the results for the negative-log IC50 (pIC50) in test [1], in test [2] and in test [3] were 8.01, 8.34 and 6.01, respectively.

`CNC(=O)CN1CCC(c2ccc3[nH]c(-c4cc(OC)c(=O)n(C)c4)c(C(C)C)c3c2)CC1` [Example 129, 2-(4-(3-isopropyl-2-(5-methoxy-1-methyl-6-oxo-1,6-dihydropyridin-3-yl)-1H-indol-5-yl)piperidin-1-yl)-N-methylacetamide]: the negative-log IC50 (pIC50) is 8.10 in test [1], 8.30 in test [2] and 5.53 in test [3].

On to `Cc1cc(-c2[nH]c3ccc(C4CCN(CC(O)C(C)(C)C)CC4)cc3c2C(C)C)cn(C)c1=O` (stereo not drawn) [Example 325, 5-(5-(1-(2-hydroxy-3,3-dimethylbutyl)piperidin-4-yl)-3-isopropyl-1H-indol-2-yl)-1,3-dimethylpyridin-2(1H)-one], for which the results for the pIC50 in test [1], in test [2] and in test [3] were 8.37, 8.06 and 5.52, respectively.

As for `CCCN1CCC(c2ccc3[nH]c(-c4cc(-c5cccc(OC)c5)c(=O)n(C)c4)c(C(C)C)c3c2)CC1` [Example 340, 5-(3-isopropyl-5-(1-propylpiperidin-4-yl)-1H-indol-2-yl)-3-(3-methoxyphenyl)-1-methylpyridin-2(1H)-one], the negative logarithm of the IC50 (pIC50) was 7.78 in test [1], 8.35 in test [2] and 5.92 in test [3].
